Molecules are shown by their SMILES.

What all share (type): cell-based
One test concerns Cryptococcus neoformans. Nature of the test: in vitro antifungal activity, minimum inhibitory concentration (MIC), Cryptococcus neoformans. From the text:
(§1) The antifungal activity of two exemplary phosphocholines prepared using the method of the invention, i.e., (1) synthetic 1,22-Bis-[2-(trimethylammonium)ethylphosphatyl] docosane obtained using the stepwise synthetic route and, (2) synthetic 1,22-Bis-[2-(trimethylammonium)ethyl-phosphatyl] docosane obtained using the one-pot one step route, as well as the antifungal activity of (3) the natural product isolated from Irbachia alata identified as 1,22-Bis-[2-(trimethylammonium)ethyl-phosphatyl] docosane (see International Application filed Oct. 8, 1993 was determined in vitro using three fungal cultures--Candida albicans (CA), Cryptococcus neoformans (CN), and Aspergillus fumigatus (CF). The method used to determine in vitro antifungal activity is described in McGinnis, M. R., Laboratory Handbook of Medical Mycology, Academic Press, New York, London, p 412-416 (1980); and Drouget, E.; Dupont, B.; Improvisi, L.; Vivian, M. A.; and Tortorano, A. M.; "Disc agar difusion and microplate automatized techniques for in vitro evaluation of antifungal agents on yeast and sporulated pathogenic fungi" in In Vitro and In Vivo Evaluation of Antifungal Agents, Eds. Iwata, K. and Vanden Bossche, H., Elsevier Science Publishers, New York, Oxford, p 303 (1986). The minimum inhibitory concentration (MIC) for each is summarized in Table I. Partial inhibition of the fungus of between 25% to 75% was also measured. A description of the partial inhibition measurement can be found in R. L. Stiller, et al, The Journal of Infectious Diseases, 147, No 6 (1983).

The test system of test [1] is Aspergillus fumigatus. In words: partial inhibition of the fungus, Aspergillus fumigatus. Conditions: in vitro, partial inhibition of between 25% to 75%.
Excerpt: as §1, with “The minimum inhibitory concentration (MIC) for each is summarized in Table I. Partial inhibition of the fungus of between 25% to 75% was also measured. A description of the partial inhibition measurement can be found in R. L. Stiller, et al, The Journal of Infectious Diseases, 147, No 6 (1983).” left out

For another test, the system named is Candida albicans. In words: in vitro antifungal activity, minimum inhibitory concentration (MIC), Candida albicans.
Excerpt: as §1

Test [2] concerns Aspergillus fumigatus. In words: in vitro antifungal activity, minimum inhibitory concentration (MIC), Aspergillus fumigatus.
Excerpt: as §1

On to `C[N+](C)(C)CCOP(=O)([O-])OCCCCCCCCCCCCCCCCCCCCCCOP(=O)([O-])OCC[N+](C)(C)C` [Synthetic 1,22-Bis[2-trimethyl-ammonium)ethyl phosphatyl] do] [1,22-Bis [2-(trimethylammonium)ethylphosphatyl] docosane], for which the “MIC CN” value in the test with Cryptococcus neoformans came to 0.08 mg/L. Further, the “Partial inhibition AF” value in the test on Aspergillus fumigatus [1] stood at 0.02 µg/mL.
Regarding `C[N+](C)(C)CCOP(=O)([O-])OCCCCCCCCCCCCCCCCCCCCCCOP(=O)([O-])OCC[N+](C)(C)C` [Isolated Natural Product 1,22-Bis[2[(trimethyl ammonium)ethy] [1,22-Bis-[2-(trimethylammonium)ethyl-phosphatyl] docosane], the “MIC CA” value against Candida albicans came to 1.25 mg/L. Further, in the test with Cryptococcus neoformans, the “MIC CN” value was below 0.04 mg/L. Also, the “MIC AF” value with Aspergillus fumigatus [2] came to 0.08 mg/L.
As for `C[N+](C)(C)CCOP(=O)([O-])OCCCCCCCCCCCCCCCCCCCCCCOP(=O)([O-])OCC[N+](C)(C)C` [Synthetic 1,22-Bis[2-(trimethyl-ammonium)ethyl phosphatyl] d] [1,22-Bis [2-(trimethylammonium)ethylphosphatyl] docosane], in the test on Candida albicans, the “MIC CA” value worked out at 0.8 mg/L. The “MIC CN” value with Cryptococcus neoformans is below 0.1 mg/L. For the same molecule, the “MIC AF” value against Aspergillus fumigatus [2] was below 0.1 mg/L. The “Partial inhibition AF” value in the test on Aspergillus fumigatus [1] came to 0.1 µg/mL.
Regarding `C[N+](C)(C)CCOP(=O)([O-])OCCCCCCCCCCCCCCCCCCCCCCOP(=O)([O-])OCC[N+](C)(C)C` [1,22-Bis [2-(trimethylammonium)ethylphosphatyl] docosane], the MIC was found to be 1.25 mg/L with Candida albicans and 0.08 mg/L against Aspergillus fumigatus [2].

The MIC is the lowest concentration found to suppress growth. Read a high MIC as weaker potency.

The record behind these values is patent publication US5811568A, “Process for the preparation of mono- and bis(phosphocholine) derivatives which have antifungal activity” (Shaman Pharmaceuticals, Inc., priority 1994, dated 1998).
